Columns and labels:
HL60 cells = experiment: MTS cell growth inhibition assay, HL60; type: cell-based, human; conditions: for IC50: Homo sapiens, HL-60, read-out: IC50 antiproliferative activity against HL60; for Selectivity index (SI) MRC5/HL60: ratio of IC50 MRC5/IC50 HL60
From the text: Based on a multiple target assay, all the prepared compounds (6–10) were first evaluated against HL60 leukemia cells to assess their in vitro antiproliferative activities. As mentioned in the Table 1, the obtained results were expressed as half-maximal inhibitory concentration (IC50) values with the average of at least three independent experiments and are compared to EA.
(§1) All cancer cell lines (HCT116, A549, MCF7, PC3, U87-MG, SKOV3, and MRC5) were obtained from the European Collection of Cell Culture (ECACC, Salisbury, UK) or from the American Type Culture Collection (Rockville, MD, USA) and were cultured according to the supplier’s instructions. Human HCT-116 colorectal carcinoma, MCF7 breast adenocarcinoma, PC3 prostate adenocarcinoma, A549 lung carcinoma, and SK-OV-3 ovary carcinoma were grown in Gibco McCoy’s 5A supplemented with 10% fetal calf serum (FCS) and 1% glutamine. HL60 myelogenous leukemia cells were grown in RPMI 1640 supplemented with 10% fetal calf serum (FCS) and 1% glutamine. U87-MG glioblastoma and human MRC-5 cells were grown in Gibco medium DMEM supplemented with 10% fetal calf serum (FCS) and 1% glutamine. Cells were maintained at 37 °C in a humidified atmosphere containing 5% CO2. Cell growth inhibition was determined by an MTS assay according to the manufacturer’s instructions (Promega, Madison, WI, USA). Briefly, the cells were seeded in 96-well plates (2.5 × 10^3 cells/well) containing 100 μL of growth medium. After 24 h of culture, the cells were treated with the tested compounds at 10 different final concentrations. After incubation for 72 h, 20 µL of Cell Titer 96®AQueous. One Solution Reagent was added for 2 h before recording absorbance at 490nm with a spectrophotometric plate reader. The concentration–response curves were generated with Graph Prism software and the 50% inhibition concentration values (IC50) were calculated from polynomial curves (four or five-parameter logistic equations).

A549 cells = experiment: MTS cell growth inhibition assay, A549; type: cell-based, human; conditions: for IC50: Homo sapiens, A549, 72 h of exposure, read-out: IC50 antiproliferative activity A549; for Selectivity index (SI) MRC5/A549: ratio of IC50 MRC5/IC50 A549
Protocol: (§2) Moreover, in order to evaluate the safety index, their effect on the proliferation of human lung fibroblasts (MCR5) as a normal cell line was also studied.
(§3) All cancer cell lines (HCT116, A549, MCF7, PC3, U87-MG, SKOV3, and MRC5) were obtained from the European Collection of Cell Culture (ECACC, Salisbury, UK) or from the American Type Culture Collection (Rockville, MD, USA) and were cultured according to the supplier’s instructions. […] U87-MG glioblastoma and human MRC-5 cells were grown in Gibco medium DMEM supplemented with 10% fetal calf serum (FCS) and 1% glutamine. Cells were maintained at 37 °C in a humidified atmosphere containing 5% CO2. Cell growth inhibition was determined by an MTS assay according to the manufacturer’s instructions (Promega, Madison, WI, USA). Briefly, the cells were seeded in 96-well plates (2.5 × 10^3 cells/well) containing 100 μL of growth medium. After 24 h of culture, the cells were treated with the tested compounds at 10 different final concentrations. After incubation for 72 h, 20 µL of Cell Titer 96®AQueous. One Solution Reagent was added for 2 h before recording absorbance at 490nm with a spectrophotometric plate reader.

U87-MG cells = experiment: MTS cell growth inhibition assay, U87-MG; type: cell-based, human; conditions: for IC50: Homo sapiens, U-87 MG, U87-MG, 72 h of exposure, read-out: IC50 antiproliferative activity U87-MG; for Selectivity index (SI) MRC5/U87-MG: ratio of IC50 MRC5/IC50 U87-MG
Protocol: as §2, §3

MRC5 cells = experiment: MTS cell growth inhibition assay, normal cell line MRC5; type: cell-based; conditions: MRC5 normal human lung fibroblasts, 72 h of exposure; read-out: IC50 antiproliferative activity MRC5
Protocol: as §2, §1

HCT116 cells = experiment: MTS cell growth inhibition assay, HCT116; type: cell-based, human; conditions: for IC50: Homo sapiens, HCT-116, HCT116, 72 h of exposure, read-out: IC50 antiproliferative activity HCT116; for Selectivity index (SI) MRC5/HCT116: ratio of IC50 MRC5/IC50 HCT116
Protocol: as §2, §3

PC3 cells = experiment: MTS cell growth inhibition assay, PC3; type: cell-based, human; conditions: for IC50: Homo sapiens, PC-3, PC3, 72 h of exposure, read-out: IC50 antiproliferative activity PC3; for Selectivity index (SI) MRC5/PC3: ratio of IC50 MRC5/IC50 PC3
Protocol: as §2, §1

SKOV3 cells = experiment: MTS cell growth inhibition assay, SKOV3; type: cell-based, human; conditions: for IC50: Homo sapiens, SK-OV-3, SKOV3, 72 h of exposure, read-out: IC50 antiproliferative activity SKOV3; for Selectivity index (SI) MRC5/SKOV3: ratio of IC50 MRC5/IC50 SKOV3
Protocol: as §2, §1

MCF7 cells = experiment: MTS cell growth inhibition assay, MCF7; type: cell-based, human; conditions: for IC50: Homo sapiens, MCF7, 72 h of exposure, read-out: IC50 antiproliferative activity MCF7; for Selectivity index (SI) MRC5/MCF7: ratio of IC50 MRC5/IC50 MCF7
Protocol: as §2, §3

Structure (SMILES) | IC50 (HL60 cells; HL60 leukemia cells, 72 h, MTS) [nM] | IC50 (A549 cells) [nM] | IC50 (U87-MG cells) [nM] | IC50 (HCT116 cells) [nM] | IC50 (PC3 cells) [nM] | IC50 (SKOV3 cells) [nM] | IC50 (MCF7 cells) [nM] | IC50 antiproliferative activity against HL60 (HL60 cells; HL60 leukemia cells, 72 h, MTS) | Selectivity index (SI) MRC5/A549 (A549 cells) | Selectivity index (SI) MRC5/U87-MG (U87-MG cells) | IC50 (MRC5 cells) [nM] | Selectivity index (SI) MRC5/HCT116 (HCT116 cells) | Selectivity index (SI) MRC5/PC3 (PC3 cells) | Selectivity index (SI) MRC5/SKOV3 (SKOV3 cells) | Selectivity index (SI) MRC5/HL60 (HL60 cells) | Selectivity index (SI) MRC5/MCF7 (MCF7 cells)
C=C(CC)C(=O)c1ccc(OCC(=O)O)cc1O [Compound 6, 2-(3-Hydroxy-4-(2-methylenebutanoyl)phenoxy)acetic acid] | > 10000 |  |  |  |  |  |  |  |  |  |  |  |  |  |  | 
C=C(CC)C(=O)c1ccc(OCC(=O)NCCCC)cc1O [Compound 7, N-Butyl-2-(3-hydroxy-4-(2-methylenebutanoyl)phenoxy)acetamide] | 1700 ± 520 | 285 ± 67.8 | 1610 ± 355 | 920 ± 20 | 485 ± 20.9 | 1510 ± 363 | 528 ± 16.9 |  | 2.98 | 0.52 | 850 ± 110 | 0.93 | 1.75 | 0.56 | 0.50 | 1.60
C#CCOc1ccc(C(=O)C(=C)CC)c(O)c1 [Compound 8, 1-(2-Hydroxy-4-(prop-2-yn-1-yloxy)phenyl)-2-methylenebutan-1-one] | 15 ± 6 | 41.2 ± 1.88 | 369 ± 50.1 | 1260 ± 80 | 68.7 ± 3.7 | 138 ± 53.8 | 61.5 ± 0.9 |  | 8.49 | 0.94 | 350 ± 40 | 0.27 | 5.09 | 2.53 | 23.33 | 5.69
C=C(CC)C(=O)c1ccc(OCC(=O)NCCCC)c(Cl)c1Cl [Compound 9, N-Butyl-2-(2,3-dichloro-4-(2-methylenebutanoyl)phenoxy)acetamide] |  |  |  |  |  |  |  | inactive |  |  |  |  |  |  |  | 

The next lines start with results.

IC50 (HL60 cells; HL60 leukemia cells, 72 h, MTS) [nM] | IC50 (A549 cells) [nM] | IC50 (U87-MG cells) [nM] | IC50 (HCT116 cells) [nM] | IC50 (PC3 cells) [nM] | IC50 (SKOV3 cells) [nM] | IC50 (MCF7 cells) [nM] | IC50 antiproliferative activity against HL60 (HL60 cells; HL60 leukemia cells, 72 h, MTS) | Structure (SMILES) | Selectivity index (SI) MRC5/A549 (A549 cells) | Selectivity index (SI) MRC5/U87-MG (U87-MG cells) | IC50 (MRC5 cells) [nM] | Selectivity index (SI) MRC5/HCT116 (HCT116 cells) | Selectivity index (SI) MRC5/PC3 (PC3 cells) | Selectivity index (SI) MRC5/SKOV3 (SKOV3 cells) | Selectivity index (SI) MRC5/HL60 (HL60 cells) | Selectivity index (SI) MRC5/MCF7 (MCF7 cells)
580 ± 40 |  |  |  |  |  |  |  | C#CCOc1ccc(C(=O)C(=C)CC)c(Cl)c1Cl [Compound 10] |  |  |  |  |  |  |  | 
 | 56.6 ± 0.84 | 99.6 ± 2.34 | 90 ± 3 | 2.09 ± 0.03 |  | 120 ± 9 |  | COc1cccc2c1C(=O)c1c(O)c3c(c(O)c1C2=O)C[C@@](O)(C(=O)CO)C[C@@H]3O[C@H]1C[C@H](N)[C@H](O)[C@H](C)O1 [Doxorubicin, doxorubicin, reference compound] |  |  | 39.9 ± 1.22 |  |  |  |  | 
